Tested on: SD rats
Assay: animal or person
Type: in vivo, rat
Conditions: Rattus norvegicus, iv, read-out: Minimal effective anesthetic dose(mg/kg)

SMILES	minimal effective dose [mg/kg]
CCC(=O)N(c1ccccc1)C1CCN(c2cc(C(C)C)c(O)c(C(C)C)c2)CC1 [Cpd-1]	< 5
COC(=O)N(c1ccccc1)C1CCN(c2cc(C(C)C)c(O)c(C(C)C)c2)CC1 [Cpd-3]	< 5
CCC(=O)N(C1CC1)C1CCN(c2cc(C(C)C)c(O)c(C(C)C)c2)CC1 [Cpd-5]	5 to 10
COC(=O)CN(C1CC1)C1CCN(c2cc(C(C)C)c(O)c(C(C)C)c2)CC1 [Cpd-8]	5 to 10
COC(=O)CN(c1ccccc1)C1CCN(c2cc(C(C)C)c(O)c(C(C)C)c2)CC1 [Cpd-10]	5 to 10
CC(=O)N(c1ccccc1)C1CCN(c2cc(C(C)C)c(O)c(C(C)C)c2)CC1 [Cpd-12]	10 to 20
CC(C)C(=O)N(c1ccccc1)C1CCN(c2cc(C(C)C)c(O)c(C(C)C)c2)CC1 [Cpd-14]	5 to 10
CC(C)OC(=O)N(c1ccccc1)C1CCN(c2cc(C(C)C)c(O)c(C(C)C)c2)CC1 [Cpd-15]	5 to 10
CCC(=O)N(c1ccccc1)C1CCN(c2cc(C(C)C)c(O)c([C@H](C)C3CC3)c2)CC1 [Cpd-18]	5 to 10
CCOC(=O)C1(c2ccccn2)CCN(c2cc(C(C)C)c(O)c(C(C)C)c2)CC1.Cl [Cpd-23]	10 to 20
CCOC(=O)C1(c2ccc(F)cc2F)CCN(c2cc(C(C)C)c(O)c(C(C)C)c2)CC1 [Cpd-27]	20 to 40
CCC(=O)N(CC1CCN(c2cc(C(C)C)c(O)c(C(C)C)c2)CC1)c1ccccc1 [Cpd-32]	5 to 10
CCOC(=O)C1(c2ccccc2F)CCN(c2cc(C(C)C)c(O)c(C(C)C)c2)CC1 [Cpd-34]	10 to 20
CCOC(=O)C1(c2cccc(Cl)c2)CCN(c2cc(C(C)C)c(O)c(C(C)C)c2)CC1 [Cpd-37]	5 to 10
CCC(=O)N(c1cc(C(C)C)c(O)c([C@H](C)C2CC2)c1)N1CCN(CCC(=O)OC)CC1 [Cpd-50]	20 to 40
CCOC(=O)N(c1ccccc1)N1CCN(c2cc(C(C)C)c(O)c(C(C)C)c2)CC1 [Cpd-51]	5 to 10
CC(C)OC(=O)N(c1ccccc1)N1CCN(c2cc(C(C)C)c(O)c(C(C)C)c2)CC1 [Cpd-52]	5 to 10
CCOC(=O)N(c1ccccc1)N1CCN(c2cc(C(C)C)c(O)c([C@H](C)C3CC3)c2)CC1 [Cpd-59]	10 to 20
CCOC(=O)N(c1cccc(C)c1)N1CCN(c2cc(C(C)C)c(O)c(C(C)C)c2)CC1 [Cpd-62]	10 to 20
CCOC(=O)N(c1ccc(F)cc1)N1CCN(c2cc(C(C)C)c(O)c(C(C)C)c2)CC1 [Cpd-64]	10 to 20

Same assay, conditions: rat, in vivo, iv

SMILES	Onset time [min]	Righting Reflex Duration [min]	Sedation Duration [min]
CCC(=O)N(c1ccccc1)C1CCN(c2cc(C(C)C)c(O)c(C(C)C)c2)CC1 [Cpd-1]	0.38 to 0.62	6.27 to 10.78	19.02 to 22.97
COC(=O)N(c1ccccc1)C1CCN(c2cc(C(C)C)c(O)c(C(C)C)c2)CC1 [Cpd-3]	0.20 to 0.67	5.83 to 22.20	24.65 to 38.02
CCC(=O)N(C1CC1)C1CCN(c2cc(C(C)C)c(O)c(C(C)C)c2)CC1 [Cpd-5]	0.45	6.40	17.12
COC(=O)CN(C1CC1)C1CCN(c2cc(C(C)C)c(O)c(C(C)C)c2)CC1 [Cpd-8]	0.40	7.73	17.93
COC(=O)CN(c1ccccc1)C1CCN(c2cc(C(C)C)c(O)c(C(C)C)c2)CC1 [Cpd-10]	0.42 to 0.45	6.47 to 27.50	47.22 to 66.70
CC(=O)N(c1ccccc1)C1CCN(c2cc(C(C)C)c(O)c(C(C)C)c2)CC1 [Cpd-12]	0.45	6.85	55.12
CC(C)C(=O)N(c1ccccc1)C1CCN(c2cc(C(C)C)c(O)c(C(C)C)c2)CC1 [Cpd-14]	0.48	17.60	42.83
CC(C)OC(=O)N(c1ccccc1)C1CCN(c2cc(C(C)C)c(O)c(C(C)C)c2)CC1 [Cpd-15]	0.67	16.28	29.90
CCC(=O)N(c1ccccc1)C1CCN(c2cc(C(C)C)c(O)c([C@H](C)C3CC3)c2)CC1 [Cpd-18]	0.20 to 0.57	5.55 to 20.30	26.77 to 47.53
CCOC(=O)C1(c2ccccn2)CCN(c2cc(C(C)C)c(O)c(C(C)C)c2)CC1.Cl [Cpd-23]	0.53	13.95	41.02
CCOC(=O)C1(c2ccc(F)cc2F)CCN(c2cc(C(C)C)c(O)c(C(C)C)c2)CC1 [Cpd-27]	1.47	36.80	67.40
CCC(=O)N(CC1CCN(c2cc(C(C)C)c(O)c(C(C)C)c2)CC1)c1ccccc1 [Cpd-32]	0.52	2.67	19.68
CCOC(=O)C1(c2ccccc2F)CCN(c2cc(C(C)C)c(O)c(C(C)C)c2)CC1 [Cpd-34]	0.88	10.28	29.75
CCOC(=O)C1(c2cccc(Cl)c2)CCN(c2cc(C(C)C)c(O)c(C(C)C)c2)CC1 [Cpd-37]	2.63	0.65	21.73
CCC(=O)N(c1cc(C(C)C)c(O)c([C@H](C)C2CC2)c1)N1CCN(CCC(=O)OC)CC1 [Cpd-50]	1.03	1.47	66.48
CCOC(=O)N(c1ccccc1)N1CCN(c2cc(C(C)C)c(O)c(C(C)C)c2)CC1 [Cpd-51]	0.65 to 0.97	2.52 to 14.47	22.27 to 35.75
CC(C)OC(=O)N(c1ccccc1)N1CCN(c2cc(C(C)C)c(O)c(C(C)C)c2)CC1 [Cpd-52]	0.52 to 0.98	13.92 to 16.42	28.53 to 94.30
CCOC(=O)N(c1ccccc1)N1CCN(c2cc(C(C)C)c(O)c([C@H](C)C3CC3)c2)CC1 [Cpd-59]	0.37 to 0.85	21.18 to 24.15	37.27 to 47.68
CCOC(=O)N(c1cccc(C)c1)N1CCN(c2cc(C(C)C)c(O)c(C(C)C)c2)CC1 [Cpd-62]	1.15 to 2.15	1.22 to 17.28	55.48 to 85.02
CCOC(=O)N(c1ccc(F)cc1)N1CCN(c2cc(C(C)C)c(O)c(C(C)C)c2)CC1 [Cpd-64]	0.43 to 0.47	3.70 to 7.22	26.92 to 42.58

Tested on: SD rats
Assay: animal or person
Type: in vivo
Conditions: Rattus norvegicus, iv, read-out: Minimal effective analgesic dose(mg/kg)

SMILES	minimal effective dose [mg/kg]
CCC(=O)N(c1ccccc1)C1CCN(c2cc(C(C)C)c(O)c(C(C)C)c2)CC1 [Cpd-1]	< 5

— patent publication US20260217651A1 (priority 2022, published 2026)
